Laboratory results taken from the NIST ThermoML archive (doi:10.1021/je700260f).

Conditions: 313.15 K, Liquid, Vibrating tube method

FC(C(F)(F)F)C(F)(F)F [1,1,1,2,3,3,3-heptafluoropropane]
Conditions	mass density [kg/m3]
13017 kPa	1415.6
13123 kPa	1416.2
13155 kPa	1416.3
13192 kPa	1416.5
13220 kPa	1416.6
13252 kPa	1417
13275 kPa	1417.1
13311 kPa	1417.3
13338 kPa	1417.4
13374 kPa	1417.6
13406 kPa	1417.6
13443 kPa	1418
13476 kPa	1418.1
13514 kPa	1418.3
13538 kPa	1418.3
13572 kPa	1418.6
13615 kPa	1418.9
13653 kPa	1419.1
13686 kPa	1419.4
13729 kPa	1419.6
13757 kPa	1419.6
13800 kPa	1419.9
13833 kPa	1420.1
13862 kPa	1420.3
13891 kPa	1420.4
13925 kPa	1420.6
13959 kPa	1420.6
13998 kPa	1420.9
14038 kPa	1421.2
14071 kPa	1421.4
14109 kPa	1421.6
14152 kPa	1421.9
14190 kPa	1422
14230 kPa	1422.4
14386 kPa	1422.9
14416 kPa	1423.1
14459 kPa	1423.5
14490 kPa	1423.7
14534 kPa	1423.8
14559 kPa	1423.9
14599 kPa	1424.1
14628 kPa	1424.3
14673 kPa	1424.6
14708 kPa	1424.9
14737 kPa	1424.9
14767 kPa	1425
14796 kPa	1425.3
14836 kPa	1425.4
14865 kPa	1425.6
14904 kPa	1425.8
14933 kPa	1425.9
14966 kPa	1426.1
14996 kPa	1426.1
15036 kPa	1426.5
15063 kPa	1426.5
15093 kPa	1426.7
15124 kPa	1426.9
15155 kPa	1427
15184 kPa	1427.2
15210 kPa	1427.4
15246 kPa	1427.5
15282 kPa	1427.7
15313 kPa	1428.1
15346 kPa	1427.9
15372 kPa	1428.3
15412 kPa	1428.5
15443 kPa	1428.6
15484 kPa	1428.7
15512 kPa	1429
15540 kPa	1429
15570 kPa	1429.3
15597 kPa	1429.5
15629 kPa	1429.6
15661 kPa	1429.7
15703 kPa	1429.9
15744 kPa	1430
15771 kPa	1430.2
15813 kPa	1430.6
15845 kPa	1430.6
15887 kPa	1430.9
15924 kPa	1431.2
15947 kPa	1431.2
15988 kPa	1431.4
16024 kPa	1431.6
16051 kPa	1431.6
16091 kPa	1431.9
16136 kPa	1432.1
16169 kPa	1432.2
16230 kPa	1432.6
16290 kPa	1432.9
16326 kPa	1433
16358 kPa	1433.3
16395 kPa	1433.5
16436 kPa	1433.6
16468 kPa	1433.7
16504 kPa	1434
16582 kPa	1434.4
16615 kPa	1434.6
16652 kPa	1434.6
16709 kPa	1435
16737 kPa	1434.9
16807 kPa	1435.4
16839 kPa	1435.5
16867 kPa	1435.7
16905 kPa	1436.1
16942 kPa	1436.1
16974 kPa	1436.3
17006 kPa	1436.5
17039 kPa	1436.6
17075 kPa	1436.8
17104 kPa	1436.8
17132 kPa	1437.2
17165 kPa	1437.3
17197 kPa	1437.3
17235 kPa	1437.5
17267 kPa	1437.6
17294 kPa	1437.8
17334 kPa	1438
17360 kPa	1438.1
17392 kPa	1438.3
17427 kPa	1438.5
17459 kPa	1438.7
17496 kPa	1438.9
17519 kPa	1439
17551 kPa	1439.2
17575 kPa	1439.3
17616 kPa	1439.4
17652 kPa	1439.6
17684 kPa	1439.7
17711 kPa	1440
17743 kPa	1440
17775 kPa	1440.1
17811 kPa	1440.3
17839 kPa	1440.4
17877 kPa	1440.6
17906 kPa	1440.8
17943 kPa	1440.9
17971 kPa	1441.1
18008 kPa	1441.2
18041 kPa	1441.4
18077 kPa	1441.6
18110 kPa	1441.7
18143 kPa	1442
18176 kPa	1442.1
18204 kPa	1442.2
18242 kPa	1442.3
18277 kPa	1442.6
18309 kPa	1442.7
18337 kPa	1442.8
18375 kPa	1443
18403 kPa	1443.1
18441 kPa	1443.2
18469 kPa	1443.5
18507 kPa	1443.6
18691 kPa	1444.6
18725 kPa	1444.7
18755 kPa	1444.7
18796 kPa	1444.9
18830 kPa	1445
18875 kPa	1445.3
18905 kPa	1445.6
18955 kPa	1445.7
18985 kPa	1445.8
19031 kPa	1445.9
19066 kPa	1446.1
19107 kPa	1446.4
19137 kPa	1446.6
19178 kPa	1446.8
19218 kPa	1446.9
19263 kPa	1447.2
19293 kPa	1447.3
19333 kPa	1447.5
19378 kPa	1447.6
19412 kPa	1447.8
19441 kPa	1448
19476 kPa	1448.1
19522 kPa	1448.4
19553 kPa	1448.5
19589 kPa	1448.7
19625 kPa	1448.9
19669 kPa	1448.9
19710 kPa	1449.1
19750 kPa	1449.4
19781 kPa	1449.5
19822 kPa	1449.6
19858 kPa	1449.8
19893 kPa	1450
19930 kPa	1450.1
19961 kPa	1450.3
19996 kPa	1450.4
20037 kPa	1450.7
20072 kPa	1450.8
20108 kPa	1450.8
20144 kPa	1451.1
20180 kPa	1451.2
20221 kPa	1451.4
20257 kPa	1451.5
20293 kPa	1451.8
20324 kPa	1451.8
20366 kPa	1452
20397 kPa	1452.3
20433 kPa	1452.4
20464 kPa	1452.6
20500 kPa	1452.8
20530 kPa	1452.8
